Our source for the IC50 and EC50 values is US10344025B2, “GLS1 inhibitors for treating disease” (Board of Regents, The University of Texas System, priority 2014, dated 2019).

The IC50 is the concentration that inhibits the measured activity by half. A word on the EC50: it is the concentration needed to bring the measured effect to its halfway point. A lower EC50 goes with a more potent agent.

The target in experiment [1] is purified recombinant human GAC (GLS1) (Homo sapiens (Human), UniProt O94925). The experiment in a line: GLS1 Enzymatic Activity Assay (dual-coupled enzymatic assay, resorufin/Amplex UltraRed readout).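 Note: glutamate from GAC coupled via glutamate oxidase and peroxidase to resorufin, read as fluorescence (ex 530, em 590 nm) kinetically or at 20 min, four-parameter logistic IC50 fit.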 Format: biochemical.
Chain of purified recombinant human GAC (GLS1) (O94925 other isoform, or with tags, fused parts or gaps): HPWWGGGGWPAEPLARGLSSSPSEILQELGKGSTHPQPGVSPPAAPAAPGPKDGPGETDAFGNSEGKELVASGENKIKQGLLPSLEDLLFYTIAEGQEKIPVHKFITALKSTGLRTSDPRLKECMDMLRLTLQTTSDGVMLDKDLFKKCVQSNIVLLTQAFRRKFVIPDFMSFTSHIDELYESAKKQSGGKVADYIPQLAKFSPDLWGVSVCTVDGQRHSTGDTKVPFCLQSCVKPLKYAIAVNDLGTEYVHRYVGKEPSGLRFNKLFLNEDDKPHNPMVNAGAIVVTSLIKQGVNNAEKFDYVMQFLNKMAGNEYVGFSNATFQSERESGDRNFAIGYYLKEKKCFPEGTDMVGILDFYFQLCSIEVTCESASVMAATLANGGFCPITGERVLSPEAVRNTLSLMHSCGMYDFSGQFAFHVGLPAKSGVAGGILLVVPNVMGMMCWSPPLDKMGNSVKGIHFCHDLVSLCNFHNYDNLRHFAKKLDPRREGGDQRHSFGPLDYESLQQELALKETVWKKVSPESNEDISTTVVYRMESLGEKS
Another experiment concerns A549 cells. The experiment in a line: Proliferation Assay (A549 viability, Cell Titer Fluor, 72 hours). Type of experiment: cell-based. The following applies: Homo sapiens, A549, 72 h. In outline: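 A549 cells seeded at 1000 cells/well, rested 24 h, then exposed to compound in 0.5% DMSO for 72 h at 37 °C. Viability read by Cell Titer Fluor fluorescence; IC50 from four-parameter logistic fit.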

With `CNC(=O)c1cn(C[C@H](F)CCc2ccc(NC(=O)Cc3cn(-c4cccc(OC(F)(F)F)c4)cn3)nn2)nn1` [Example 270, (R)-1-(2-fluoro-4-(6-(2-(1-(3-(trifluoromethoxy)phenyl)-1H-imidazol-4-yl)acetamido)pyridazin-3-yl)butyl)-N-methyl-1H-1,2,3-triazole-4-carboxamide], the IC50 in experiment [1] is < 100 nM. In addition, the EC50 in the experiment with A549 cells was < 100 nM.
Turning to `CNC(=O)c1cn(C[C@H](F)CCc2ccc(NC(=O)Cc3cc(OC4CCOCC4)ccn3)nn2)nn1` [Example 271, (R)-1-(2-fluoro-4-(6-(2-(4-((tetrahydro-2H-pyran-4-yl)oxy)pyridin-2-yl)acetamido)pyridazin-3-yl)butyl)-N-methyl-1H-1,2,3-triazole-4-carboxamide], in experiment [1], the IC50 is < 100 nM. Besides, in the experiment with A549 cells, the EC50 is < 100 nM.
`CNC(=O)c1cn(C[C@H](F)CCc2ccc(NC(=O)Cc3ccccc3)nn2)nn1` [Example 273, (R)-1-(2-fluoro-4-(6-(2-phenylacetamido)pyridazin-3-yl)butyl)-N-methyl-1H-1,2,3-triazole-4-carboxamide]: the IC50 in experiment [1] is < 100 nM. Moreover, in the experiment with A549 cells, the EC50 was < 100 nM.
In the case of `CNC(=O)c1cn(CC(F)CCc2ccc(NC(=O)Cc3cc(OC(F)F)ccn3)nn2)nn1` (stereo not shown) [Example 274, 1-(4-(6-(2-(4-(difluoromethoxy)pyridin-2-yl)acetamido)pyridazin-3-yl)-2-fluorobutyl)-N-methyl-1H-1,2,3-triazole-4-carboxamide], in experiment [1], the IC50 is < 100 nM. Besides, the EC50 with A549 cells is < 100 nM.
As for `CNC(=O)c1cn(C[C@H](F)CCc2ccc(NC(=O)Cc3cc(C4CC4)ccn3)nn2)nn1` [Example 275, (R)-1-(4-(6-(2-(4-cyclopropylpyridin-2-yl)acetamido)pyridazin-3-yl)-2-fluorobutyl)-N-methyl-1H-1,2,3-triazole-4-carboxamide], the IC50 in experiment [1] was < 100 nM. Also, the EC50 in the experiment with A549 cells is < 100 nM.
On to `O=C(CC1CC1)Nc1cn(CCCCn2cc(C(=O)NCc3cccc(OC(F)(F)F)c3)nn2)nn1` [Example 276, 1-{4-[4-(2-cyclopropylacetamido)-1H-1,2,3-triazol-1-yl]butyl}-N-{[3-(trifluoromethoxy)phenyl]methyl}-1H-1,2,3-triazole-4-carboxamide], for which, in experiment [1], the IC50 lay in the range of 100 to 500 nM. In the experiment on A549 cells, the 50% effective concentration (EC50) was in the range of 100 to 500 nM.
For `O=C(CC1CCCC1)Nc1cn(CCCCn2cc(C(=O)NCc3ccccn3)nn2)nn1` [Example 277, 1-{4-[4-(2-cyclopentylacetamido)-1H-1,2,3-triazol-1-yl]butyl}-N-(pyridin-2-ylmethyl)-1H-1,2,3-triazole-4-carboxamide], in experiment [1], the IC50 lay in the range of 100 to 500 nM. The molecule also registered an EC50 with A549 cells of 500 to 5000 nM.
Take `O=C(Cc1cccc(OC(F)(F)F)c1)Nc1cn(CCCCn2cc(C(=O)NCc3ccccn3)nn2)nn1` [Example 279, N-(pyridin-2-ylmethyl)-1-[4-(4-{2-[3-(trifluoromethoxy)phenyl]acetamido}-1H-1,2,3-triazol-1-yl)butyl]-1H-1,2,3-triazole-4-carboxamide]: the IC50 in experiment [1] is < 100 nM. In the experiment on A549 cells, the EC50 fell in the range of 100 to 500 nM.
`O=C(CC1CCCCC1)Nc1cn(CCCCn2cc(C(=O)NCc3ccccn3)nn2)nn1` [Example 280, 1-{4-[4-(2-cyclohexylacetamido)-1H-1,2,3-triazol-1-yl]butyl}-N-(pyridin-2-ylmethyl)-1H-1,2,3-triazole-4-carboxamide]: the IC50 in experiment [1] is 100 to 500 nM. In the experiment on A549 cells, this molecule came in with an EC50 of 500 to 5000 nM.
The matching figures for `O=C(Cc1cccnc1)Nc1cn(CCCCn2cc(C(=O)NCC3CCCCC3)nn2)nn1` [Example 284, N-(cyclohexylmethyl)-1-(4-{4-[2-(pyridin-3-yl)acetamido]-1H-1,2,3-triazol-1-yl}butyl)-1H-1,2,3-triazole-4-carboxamide]: 100 to 500 nM and 500 to 5000 nM.
Consider `O=C(Cc1ccccn1)Nc1cn(CCCCn2cc(C(=O)NCC3CCCCC3)nn2)nn1` [Example 285, N-(cyclohexylmethyl)-1-(4-{4-[2-(pyridin-2-yl)acetamido]-1H-1,2,3-triazol-1-yl}butyl)-1H-1,2,3-triazole-4-carboxamide], for which, in experiment [1], the IC50 is 500 to 5000 nM. The EC50 in the experiment on A549 cells was 500 to 5000 nM.
